Drawing on ChEMBL document CHEMBL1156496 (J Biol Chem, 2007), this text covers IC50 and Kd for one compound.

The term pIC50 denotes the IC50 on a negative log10 scale, so that one unit is a factor of ten. The low end stands for a large IC50, the high end for a small IC50. In general, pKd refers to the Kd on a negative log10 scale, so that one unit is a factor of ten. Read a high pKd as a small Kd.

pIC50, pKd: −log10 of the molar value.

Assay [1] in a line: Inhibition of complement component C3c.
The nature of assay [2]: Binding affinity to complement component C3c in human plasma. The assay is classed as cell-free.

The compound `CC[C@H](C)[C@H](N)C(=O)N[C@H]1CSSC[C@@H](C(=O)N[C@H](C(N)=O)[C@@H](C)O)NC(=O)[C@H](CCCNC(=N)N)NC(=O)[C@H](Cc2cnc[nH]2)NC(=O)[C@H](Cc2cnc[nH]2)NC(=O)CNC(=O)[C@H](Cc2c[nH]c3ccccc23)NC(=O)[C@H](CC(=O)O)NC(=O)[C@H](CCC(N)=O)NC(=O)[C@H](C(C)C)NC(=O)[C@H](C(C)C)NC1=O` [COMPSTATIN] had a pIC50 in assay [1] of 4.92. The compound also showed a pKd in assay [2] of 6.41.
